Our source for the EC50 and CC50 values is US10765662B2, “Mono- or di-substituted indole derivatives as dengue viral replication inhibitors” (Janssen Pharmaceuticals, Inc., priority 2015, dated 2020).

pEC50: −log10 of the molar value.

Data set [1] deals with DENV-4 strain H241. Briefly: Tetravalent RT-qPCR assay Protocol A, serotype 4 H241. It is filed as cell-based. Conditions: Dengue virus, DENV4, Vero, 72 h. The method, then:
(§1) The antiviral activity of the compounds of the invention was tested against DENV-1 strain TC974#666 (NCPV), DENV-2 strain 16681, DENV-3 strain H87 (NCPV) and DENV-4 strains H241 (NCPV) and EDEN (SG/06K2270DK1/2005; GenBank accession number QG398256) in a RT-qPCR assay. Therefore, Vero cells were infected with either DENV-1, or -2, or -3, or -4 in the presence or absence of test compounds. At day 3 post-infection, the cells were lysed and cell lysates were used to prepare cDNA of both a viral target (the 3′UTR of DENV; Table 2) and a cellular reference gene (β-actin, Table 2). Subsequently, a duplex real time PCR was performed on a Lightcycler480 instrument. The generated Cp value is inversely proportional to the amount of RNA expression of these targets. Inhibition of DENV replication by a test compound results in a shift of Cp's for the 3′UTR gene. On the other hand, if a test compound is toxic to the cells, a similar effect on β-actin expression will be observed. The comparative ΔΔCp method is used to calculate EC50, which is based on the relative gene expression of the target gene (3′UTR) normalized with the cellular housekeeping gene (β-actin). In addition, CC50 values are determined based on the Cp values acquired for the housekeeping gene β-actin.
(§2) The culture medium consisted of minimal essential medium supplemented with 2% of heat-inactivated fetal calf serum, 0.04% gentamycin (50 mg/mL) and 2 mM of L-glutamine. Vero cells, obtained from ECACC, were suspended in culture medium and 75 μL/well was added in 96-well plates (10000 cells/well), which already contain the antiviral compounds. […] In addition, each plate contains wells which are assigned as virus controls (containing cells and virus in the absence of compound) and cell controls (containing cells in the absence of virus and compound). Once the cells were added in the plates, the plates were incubated in a fully humidified incubator (37° C., 5% CO2) until the next day. Dengue viruses serotype-1, 2, 3 and 4 were diluted in order to obtain a Cp of ˜22-24 in the assay. Therefore, 25 μL of virus suspension, was added to all the wells containing test compound and to the wells assigned as virus control. In parallel, 25 μL of culture medium was added to the cell controls. Next, the plates were incubated for 3 days in a fully humidified incubator (37° C., 5% CO2). After 3 days, the supernatant was removed from the wells and the cells were washed twice with ice-cold PBS (˜100 μL). The cell pellets within the 96-well plates were stored at −80° C. for at least 1 day. Next, RNA was extracted using the Cells-to-CT™ lysis kit, according to the manufacturer's guideline (Life Technologies). The cell lysates can be stored at −80° C. or immediately used in the reverse transcription step.
(§3) In preparation of the reverse transcription step, mix A (table 3A) was prepared and 7.57 μL/well was dispensed in a 96-well plate. After addition of 5 μL of the cell lysates, a five minute denaturation step at 75° C. was performed (table 3B). Afterwards, 7.43 μL of mix B was added (table 3C) and the reverse transcription step was initiated (table 3D) to generate cDNA.
(§4) Finally, a RT-qPCR mix was prepared, mix C (table 4A), and 22.02 μL/well was dispensed in 96-well LightCycler qPCR plates to which 3 μL of cDNA was added and the qPCR was performed according to the conditions in table 4B on a LightCycler 480.
(§5) Using the LightCycler software and an in-house LIMS system, dose response curves for each compound were calculated and the half maximal effective concentration (EC50) and the half maximal cytotoxic concentration (CC50) were determined (Tables 5-8).

Data set [2] has as its system DENV-4 strain EDEN (SG/06K2270DK1/2005). Kind of data set: Tetravalent RT-qPCR assay Protocol A, serotype 4 EDEN. The format is cell-based. Conditions: Dengue virus, DENV4, 72 h; RT-qPCR serotype 4 EDEN, Vero cells, day 3. The method, then: as §1, §2, §3, §4, §5
(In general: Real-time PCR tracks product formation cycle by cycle.)

A short description of data set [3]: in vitro. The format is cell-based. Conditions: African green monkey. The method, then: as §1, §2, §5
For data set [4], the system named is DENV-2 strain 16681. Briefly: Tetravalent RT-qPCR assay Protocol A, serotype 2. It is filed as cell-based. The following applies: Dengue virus, DENV2, 72 h; RT-qPCR serotype 2 16681, Vero cells, day 3. The method, then: as §1, §2, §3, §4, §5
The test system of data set [5] is Vero cells. Kind of data set: in vitro. It is filed as cell-based. The following applies: African green monkey.
Data set [6] has as its system DENV-1 strain TC974#666. Kind of data set: Tetravalent RT-qPCR assay Protocol A, serotype 1. The following applies: Dengue virus, DENV1, 72 h; RT-qPCR serotype 1 TC974#666, Vero cells, day 3. The format is cell-based. How it is done: as §1, §2, §3, §4, §5
The subject of data set [7] is DENV-3 strain H87. Kind of data set: Tetravalent RT-qPCR assay Protocol A, serotype 3. Conditions: Dengue virus, DENV3, 72 h; RT-qPCR serotype 3 H87, Vero cells, day 3. The format is cell-based. How it is done:
as §1, §2, §3, §4, §5

The subject of data set [8] is DENV-2 16681 strain labeled with enhanced green fluorescent protein. Briefly: DENV-2 antiviral assay (eGFP fluorescence read-out in Vero cells). It is filed as cell-based, Dengue virus. Conditions: DENV-2 16681 eGFP, MOI 0.5, 3 days. The essentials:
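Vero cells (2500/well) pre-plated with compound (9-step 5-fold series), infected next day with eGFP-labeled DENV-2 16681 at MOI 0.5 in MEM with 2% FCS; 3 days at 37° C. eGFP fluorescence read at 488 nm; inhibition versus virus and cell controls, EC50 by linear interpolation.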

For `COc1cc(NC(C(=O)c2c[nH]c3cc(F)c(F)cc23)c2ccc(Cl)cc2OCCO)cc(S(C)(=O)=O)c1` (single isomer, unassigned) [Compound 7A, 2-(4-chloro-2-(2-hydroxyethoxy)phenyl)-1-(5,6-difluoro-1H-indol-3-yl)-2-((3-methoxy-5-(methylsulfonyl)phenyl)amino)ethanone], the pEC50 (usually the EC50 on a negative log10 scale, so that one unit is a factor of ten) in data set [1] was 7.19; in data set [2], 9.19; in data set [4] it was 9.68; in data set [6], 9.01; in data set [7], 7.96; in data set [8] it was 9.66. Further, the midpoint of cytotoxicity in data set [3], the CC50 at 3 days, lay at 2900 nM. Further, the cytotoxic concentration (CC50) – broadly, the concentration giving 50% cytotoxicity – in data set [5] came to 2700 nM.
Regarding `COc1cc(NC(C(=O)c2c[nH]c3cc(Cl)ccc23)c2ccc(Cl)cc2OCCO)cc(S(C)(=O)=O)c1` (single isomer, unassigned) [Compound 2A, 1-(6-chloro-1H-indol-3-yl)-2-(4-chloro-2-(2-hydroxyethoxy)phenyl)-2-((3-methoxy-5-(methylsulfonyl)phenyl)amino)ethanone], the pEC50 is 7.13 in data set [1]; 8.89 in data set [2]; 9.85 in data set [4]; 8.80 in data set [6]; 7.74 in data set [7]; 9.96 in data set [8]. Further, the CC50 at 3 days in data set [3] is > 2500 nM. The same compound gave a CC50 in data set [5] of 3400 nM.
For `COc1cc(NC(C(=O)c2c[nH]c3c(C)c(Cl)ccc23)c2ccc(Cl)cc2OCCO)cc(S(C)(=O)=O)c1` (single isomer, unassigned) [Compound 5B, 2-(4-chloro-2-(2-hydroxyethoxy)phenyl)-1-(6-chloro-7-methyl-1H-indol-3-yl)-2-((3-methoxy-5-(methylsulfonyl)phenyl)amino)ethanone], the pEC50 in data set [1] was 7.13; in data set [2] it was 8.96; in data set [4], 10.19; in data set [6], 8.80; in data set [7] it was 7.92; in data set [8], 10.18. The CC50 at 3 days in data set [3] is > 2500 nM. The same compound displayed a CC50 in data set [5] of 3400 nM.
